Results as given in PubChem BioAssay AID2060623 (Molecular Pharmacology Branch, DTP, NCI, 2025).
Values joined by “and” are separate entries in the source; they are usually repeats but may differ in a detail not shown here. Equal values may be shown once.

Test system: 227483-062-R1-J1-PDC complex spheroids with HUVEC/MSC, viability
Test: Anticancer human tumor 227483-062-R1-J1-PDC patient-derived pancreatic carcinoma cell line growth inhibition [CLK]
Details: for viability, T/C: stronger effect = lower value
Summary of the method: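 Multi-cell-type spheroids combined patient-derived tumor cells with HUVEC endothelial cells and human mesenchymal stem cells. Paired agents were dosed in half-log steps down from about clinical Cmax, or from 10 microM where Cmax was unknown.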

[1] = curve of first compound, second compound 0.0316 µM
[2] = curve of first compound, second compound 0.1 µM
[3] = curve of first compound, second compound 0.316 µM
[4] = curve of first compound, second compound 1 µM
[5] = curve of first compound, second compound 3.16 µM
[6] = curve of first compound, second compound 10 µM
[7] = second compound 0.0316 µM, first compound 0.0316 µM
[8] = second compound 0.0316 µM, first compound 0.1 µM
[9] = second compound 0.0316 µM, first compound 0.316 µM
[10] = second compound 0.0316 µM, first compound 1 µM
[11] = second compound 0.0316 µM, first compound 3.16 µM
[12] = second compound 0.0316 µM, first compound 10 µM
[13] = second compound 0.1 µM, first compound 0.0316 µM
[14] = second compound 0.1 µM, first compound 0.1 µM
[15] = second compound 0.1 µM, first compound 0.316 µM
[16] = second compound 0.1 µM, first compound 1 µM
[17] = second compound 0.1 µM, first compound 3.16 µM
[18] = second compound 0.1 µM, first compound 10 µM
[19] = second compound 0.316 µM, first compound 0.0316 µM
[20] = second compound 0.316 µM, first compound 0.1 µM
[21] = second compound 0.316 µM, first compound 0.316 µM
[22] = second compound 0.316 µM, first compound 1 µM
[23] = second compound 0.316 µM, first compound 3.16 µM
[24] = second compound 0.316 µM, first compound 10 µM
[25] = second compound 1 µM, first compound 0.0316 µM
[26] = second compound 1 µM, first compound 0.1 µM
[27] = second compound 1 µM, first compound 0.316 µM
[28] = second compound 1 µM, first compound 1 µM
[29] = second compound 1 µM, first compound 3.16 µM
[30] = second compound 1 µM, first compound 10 µM
[31] = second compound 3.16 µM, first compound 0.0316 µM
[32] = second compound 3.16 µM, first compound 0.1 µM
[33] = second compound 3.16 µM, first compound 0.316 µM
[34] = second compound 3.16 µM, first compound 1 µM
[35] = second compound 3.16 µM, first compound 3.16 µM
[36] = second compound 3.16 µM, first compound 10 µM
[37] = second compound 10 µM, first compound 0.0316 µM
[38] = second compound 10 µM, first compound 0.1 µM
[39] = second compound 10 µM, first compound 0.316 µM
[40] = second compound 10 µM, first compound 1 µM
[41] = second compound 10 µM, first compound 3.16 µM
[42] = second compound 10 µM, first compound 10 µM
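Further: spheroids exposed to compounds for seven days before readout.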
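Wherever viability, T/C is given: percent of DMSO vehicle control luminescence as 100% viability.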

Which results are given for `O=C(c1cc(Cc2n[nH]c(=O)c3ccccc23)ccc1F)N1CCN(C(=O)C2CC2)CC1` + CN1CCN(c2cc(C(=O)Nc3cc4cc(-c5cnn(C)c5)ccc4cn3)ccn2)CC1?
IC50 [1]: > 10000 nM; IC50 [2]: > 10000 nM; IC50 [3]: < 31.6 nM; IC50 [4]: < 31.6 nM; IC50 [5]: < 31.6 nM; IC50 [6]: < 31.6 nM; viability, T/C [7]: 94.6%; viability, T/C [8]: 105%; viability, T/C [9]: 129%; viability, T/C [10]: 100%; viability, T/C [11]: 121%; viability, T/C [12]: 99.7%; viability, T/C [13]: 54.3%; viability, T/C [14]: 87.4%; viability, T/C [15]: 60.1%; viability, T/C [16]: 81.2%; viability, T/C [17]: 84.4%; viability, T/C [18]: 78.9%; viability, T/C [19]: 6.03%; viability, T/C [20]: 6.34%; viability, T/C [21]: 4.67%; viability, T/C [22]: 4.91%; viability, T/C [23]: 5.89%; viability, T/C [24]: 5.77%; viability, T/C [25]: 2.77%; viability, T/C [26]: 1.94%; viability, T/C [27]: 1.82%; viability, T/C [28]: 2.7%; viability, T/C [29]: 2.26%; viability, T/C [30]: 1.69%; viability, T/C [31]: 7.27%; viability, T/C [32]: 3.78%; viability, T/C [33]: 4.39%; viability, T/C [34]: 2.51%; viability, T/C [35]: 4.57%; viability, T/C [36]: 3.8%; viability, T/C [37]: 4.72%; viability, T/C [38]: 2.86%; viability, T/C [39]: 2.33%; viability, T/C [40]: 2.8%; viability, T/C [41]: 2.43%; viability, T/C [42]: 2.26%

`CC1(C)CCC(CN2CCN(c3ccc(C(=O)NS(=O)(=O)c4ccc(NCC5CCOCC5)c([N+](=O)[O-])c4)c(Oc4cnc5[nH]ccc5c4)c3)CC2)=C(c2ccc(Cl)cc2)C1` + CN1CCN(c2cc(C(=O)Nc3cc4cc(-c5cnn(C)c5)ccc4cn3)ccn2)CC1 was tested. Which IC50 [1] did it give?
The IC50 was 5670 nM.

What about the IC50 [2] of the same molecule?
The IC50 was 4230 nM.

What about the IC50 [3] of the same molecule?
Its IC50 is under 31.6 nM.

What about the IC50 [4] of the same molecule?
The IC50 was under 31.6 nM.

What about the IC50 [5] of the same molecule?
The IC50 was under 31.6 nM.

And the IC50 [6]?
The IC50 was under 31.6 nM.

And the viability, T/C [7]?
The viability, T/C was 93.9%.

And the viability, T/C [8]?
The viability, T/C was 96.5%.

And the viability, T/C [9]?
The viability, T/C was 110%.

And the viability, T/C [10]?
The viability, T/C was 110%.

And the viability, T/C [11]?
Its viability, T/C is 89.8%.

What about the viability, T/C [12] of the same molecule?
Its viability, T/C is 11.5%.

What about the viability, T/C [13] of the same molecule?
Its viability, T/C is 58%.

What about the viability, T/C [14] of the same molecule?
Its viability, T/C is 58.1%.

And the viability, T/C [15]?
The viability, T/C was 63.1%.

What about the viability, T/C [16] of the same molecule?
Its viability, T/C is 62.7%.

What about the viability, T/C [17] of the same molecule?
The viability, T/C was 81.3%.

And the viability, T/C [18]?
Its viability, T/C is 6.59%.

And the viability, T/C [19]?
Its viability, T/C is 5.04%.

What about the viability, T/C [20] of the same molecule?
Its viability, T/C is 6.53%.

What about the viability, T/C [21] of the same molecule?
Its viability, T/C is 5.51%.

What about the viability, T/C [22] of the same molecule?
Its viability, T/C is 5.88%.

What about the viability, T/C [23] of the same molecule?
The viability, T/C was 6.54%.

What about the viability, T/C [24] of the same molecule?
Its viability, T/C is 1.59%.

And the viability, T/C [25]?
The viability, T/C was 2.1%.

And the viability, T/C [26]?
Its viability, T/C is 2.74%.

And the viability, T/C [27]?
The viability, T/C was 2.88%.

And the viability, T/C [28]?
Its viability, T/C is 2.08%.

And the viability, T/C [29]?
Its viability, T/C is 1.44%.

And the viability, T/C [30]?
Its viability, T/C is 0.36%.

What about the viability, T/C [31] of the same molecule?
The viability, T/C was 3.39%.

What about the viability, T/C [32] of the same molecule?
The viability, T/C was 4.13%.

What about the viability, T/C [33] of the same molecule?
Its viability, T/C is 2.75%.

What about the viability, T/C [34] of the same molecule?
The viability, T/C was 2.22%.

And the viability, T/C [35]?
Its viability, T/C is 2.43%.

And the viability, T/C [36]?
The viability, T/C was 2.73%.

And the viability, T/C [37]?
The viability, T/C was 2.85%.

And the viability, T/C [38]?
Its viability, T/C is 2.4%.

What about the viability, T/C [39] of the same molecule?
Its viability, T/C is 1.5%.

What about the viability, T/C [40] of the same molecule?
The viability, T/C was 4.14%.

What about the viability, T/C [41] of the same molecule?
Its viability, T/C is 1.34%.

And the viability, T/C [42]?
The viability, T/C was 0.39%.

`CC1(C)CCC(CN2CCN(c3ccc(C(=O)NS(=O)(=O)c4ccc(NCC5CCOCC5)c([N+](=O)[O-])c4)c(Oc4cnc5[nH]ccc5c4)c3)CC2)=C(c2ccc(Cl)cc2)C1` was tested. Which viability, T/C (compound 0.0316 µM) did it give?
Its viability, T/C is 92.4% and 103%.

What about the viability, T/C (compound 0.1 µM) of the same molecule?
The viability, T/C was 112% and 85.4%.

What about the viability, T/C (compound 0.316 µM) of the same molecule?
The viability, T/C was 95.4% and 94.4%.

What about the viability, T/C (compound 1 µM) of the same molecule?
The viability, T/C was 107% and 104%.

And the viability, T/C (compound 3.16 µM)?
The viability, T/C was 106% and 112%.

What about the viability, T/C (compound 10 µM) of the same molecule?
Its viability, T/C is 13.2% and 9.57%.

What about the IC50 (curve of compound) of the same molecule?
The IC50 was 6220 nM and 5970 nM.

With `COc1cccc2c1C(=O)c1c(O)c3c(c(O)c1C2=O)CC(O)(C(=O)CO)CC3OC1CC(N)C(O)C(C)O1` (stereo not drawn) + CNC(=O)c1ccc(Nc2nc(OC3CCCC3)c3c(-c4ccc5nc(C)oc5c4)c[nH]c3n2)c(OC)c1 as the molecule, how does the IC50 [1] read?
Its IC50 is 277 nM.

What about the IC50 [2] of the same molecule?
Its IC50 is 229 nM.

What about the IC50 [3] of the same molecule?
Its IC50 is 177 nM.

What about the IC50 [4] of the same molecule?
Its IC50 is 114 nM.

What about the IC50 [5] of the same molecule?
Its IC50 is under 31.6 nM.

What about the IC50 [6] of the same molecule?
Its IC50 is under 31.6 nM.

And the viability, T/C [7]?
Its viability, T/C is 84.4%.

What about the viability, T/C [8] of the same molecule?
Its viability, T/C is 91.2%.

And the viability, T/C [9]?
Its viability, T/C is 43.6%.

And the viability, T/C [10]?
The viability, T/C was 19.9%.

And the viability, T/C [11]?
The viability, T/C was 1.83%.

What about the viability, T/C [12] of the same molecule?
Its viability, T/C is 10.3%.

And the viability, T/C [13]?
Its viability, T/C is 81.2%.

And the viability, T/C [14]?
Its viability, T/C is 79.9%.

What about the viability, T/C [15] of the same molecule?
The viability, T/C was 38.1%.

What about the viability, T/C [16] of the same molecule?
Its viability, T/C is 15%.

And the viability, T/C [17]?
Its viability, T/C is 2.41%.

And the viability, T/C [18]?
The viability, T/C was 10.7%.

And the viability, T/C [19]?
The viability, T/C was 81.7%.

What about the viability, T/C [20] of the same molecule?
Its viability, T/C is 66.2%.

What about the viability, T/C [21] of the same molecule?
Its viability, T/C is 33.8%.

What about the viability, T/C [22] of the same molecule?
Its viability, T/C is 9.76%.

And the viability, T/C [23]?
The viability, T/C was 2.28%.

And the viability, T/C [24]?
Its viability, T/C is 9.14%.

And the viability, T/C [25]?
The viability, T/C was 66.9%.

What about the viability, T/C [26] of the same molecule?
The viability, T/C was 53.5%.

What about the viability, T/C [27] of the same molecule?
Its viability, T/C is 20.1%.

And the viability, T/C [28]?
The viability, T/C was 4.28%.

And the viability, T/C [29]?
Its viability, T/C is 2.52%.

And the viability, T/C [30]?
The viability, T/C was 5.99%.

What about the viability, T/C [31] of the same molecule?
Its viability, T/C is 45.1%.

And the viability, T/C [32]?
The viability, T/C was 35.9%.

What about the viability, T/C [33] of the same molecule?
Its viability, T/C is 11.5%.

What about the viability, T/C [34] of the same molecule?
Its viability, T/C is 2.71%.

What about the viability, T/C [35] of the same molecule?
The viability, T/C was 3.57%.

And the viability, T/C [36]?
Its viability, T/C is 5.5%.

And the viability, T/C [37]?
The viability, T/C was 41.7%.

And the viability, T/C [38]?
Its viability, T/C is 28.1%.

What about the viability, T/C [39] of the same molecule?
The viability, T/C was 11.3%.

And the viability, T/C [40]?
The viability, T/C was 2.5%.

What about the viability, T/C [41] of the same molecule?
Its viability, T/C is 3.15%.

And the viability, T/C [42]?
Its viability, T/C is 6.7%.
